Data set [1] addresses T1, EPHB2 (Homo sapiens, UniProt P29323).
T1 sequence (P29323 19-1055): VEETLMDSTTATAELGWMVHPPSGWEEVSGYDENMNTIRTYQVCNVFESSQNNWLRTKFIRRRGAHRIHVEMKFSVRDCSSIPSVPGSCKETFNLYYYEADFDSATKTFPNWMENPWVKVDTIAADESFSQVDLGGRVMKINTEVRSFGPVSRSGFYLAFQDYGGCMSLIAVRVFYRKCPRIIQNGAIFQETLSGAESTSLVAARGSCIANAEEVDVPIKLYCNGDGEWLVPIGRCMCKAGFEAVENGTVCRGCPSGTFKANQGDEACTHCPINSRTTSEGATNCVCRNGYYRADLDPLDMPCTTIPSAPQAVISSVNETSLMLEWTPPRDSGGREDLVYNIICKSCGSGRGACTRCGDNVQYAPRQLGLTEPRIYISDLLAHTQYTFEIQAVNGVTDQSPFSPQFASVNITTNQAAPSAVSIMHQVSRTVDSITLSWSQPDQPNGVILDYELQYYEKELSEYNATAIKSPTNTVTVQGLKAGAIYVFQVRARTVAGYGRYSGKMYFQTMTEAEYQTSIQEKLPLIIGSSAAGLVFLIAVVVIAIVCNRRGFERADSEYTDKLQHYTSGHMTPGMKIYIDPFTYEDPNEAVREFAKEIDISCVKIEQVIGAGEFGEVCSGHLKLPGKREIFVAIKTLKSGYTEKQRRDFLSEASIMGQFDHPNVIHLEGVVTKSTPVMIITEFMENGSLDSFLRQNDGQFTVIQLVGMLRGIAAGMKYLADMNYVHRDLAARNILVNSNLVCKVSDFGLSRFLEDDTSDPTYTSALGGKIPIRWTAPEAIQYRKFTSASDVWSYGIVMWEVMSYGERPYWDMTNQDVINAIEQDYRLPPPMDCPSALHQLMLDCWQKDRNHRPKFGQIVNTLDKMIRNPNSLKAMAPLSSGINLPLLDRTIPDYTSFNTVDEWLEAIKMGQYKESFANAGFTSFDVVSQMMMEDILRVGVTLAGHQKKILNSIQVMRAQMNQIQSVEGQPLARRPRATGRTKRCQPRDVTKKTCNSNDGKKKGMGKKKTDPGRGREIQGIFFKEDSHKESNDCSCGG
Description: panel of 189 kinase assays. The data set is classed as biochemical.

In data set [2] the target is RAF-1 (CRAF) (Homo sapiens, UniProt P04049). Description: RAF kinase inhibition in vitro. It counts as biochemical.
The target in data set [3] is EPHA7 (Homo sapiens, UniProt Q15375). Put plainly: panel of 189 kinase assays. It counts as biochemical.
The target of data set [4] is colony stimulating factor 1 receptor (CSF1R) (Homo sapiens, UniProt P07333). Description: panel of 189 kinase assays. It counts as biochemical.
For data set [5], the system named is P-gp/BCRP. Put plainly: P-gp/BCRP efflux substrate status. It counts as in vitro ADME. To be noted: belvarafenib, own experiments.
The target in data set [6] is T2, EPHA8 (Homo sapiens, UniProt P29322).
T2 sequence (P29322 28-1005): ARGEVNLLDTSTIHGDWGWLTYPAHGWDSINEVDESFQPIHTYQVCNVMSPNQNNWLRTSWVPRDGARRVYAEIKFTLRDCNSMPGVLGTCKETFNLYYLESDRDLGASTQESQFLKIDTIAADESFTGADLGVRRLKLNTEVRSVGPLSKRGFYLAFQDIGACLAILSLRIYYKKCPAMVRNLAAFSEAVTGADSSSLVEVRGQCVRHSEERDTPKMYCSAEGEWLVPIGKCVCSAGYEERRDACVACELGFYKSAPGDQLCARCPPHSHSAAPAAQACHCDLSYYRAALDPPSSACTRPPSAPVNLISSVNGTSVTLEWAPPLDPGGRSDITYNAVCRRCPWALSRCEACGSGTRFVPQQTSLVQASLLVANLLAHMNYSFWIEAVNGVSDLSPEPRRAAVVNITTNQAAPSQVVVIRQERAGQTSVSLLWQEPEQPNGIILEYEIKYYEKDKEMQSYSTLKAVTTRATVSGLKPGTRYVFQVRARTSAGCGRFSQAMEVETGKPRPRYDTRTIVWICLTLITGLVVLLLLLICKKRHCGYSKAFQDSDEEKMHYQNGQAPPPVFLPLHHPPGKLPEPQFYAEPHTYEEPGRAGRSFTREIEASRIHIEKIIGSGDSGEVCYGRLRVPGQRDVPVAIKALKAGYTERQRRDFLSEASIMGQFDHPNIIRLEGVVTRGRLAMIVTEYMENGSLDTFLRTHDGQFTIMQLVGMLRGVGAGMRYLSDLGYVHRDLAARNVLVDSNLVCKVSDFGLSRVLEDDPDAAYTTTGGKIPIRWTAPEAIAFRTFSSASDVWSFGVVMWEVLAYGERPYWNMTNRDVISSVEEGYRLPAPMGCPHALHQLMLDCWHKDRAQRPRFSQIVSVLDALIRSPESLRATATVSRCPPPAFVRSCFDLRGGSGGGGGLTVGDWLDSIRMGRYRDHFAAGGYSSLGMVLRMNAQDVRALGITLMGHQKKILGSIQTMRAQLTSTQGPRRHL
Description: panel of 189 kinase assays. The data set is classed as biochemical.

SMILES strings stand for the structures. pIC50: −log10 of the molar value. A value given as a limit tells only on which side of the number the result lay.

RAF-1 (CRAF), sequence (P04049 whole entry): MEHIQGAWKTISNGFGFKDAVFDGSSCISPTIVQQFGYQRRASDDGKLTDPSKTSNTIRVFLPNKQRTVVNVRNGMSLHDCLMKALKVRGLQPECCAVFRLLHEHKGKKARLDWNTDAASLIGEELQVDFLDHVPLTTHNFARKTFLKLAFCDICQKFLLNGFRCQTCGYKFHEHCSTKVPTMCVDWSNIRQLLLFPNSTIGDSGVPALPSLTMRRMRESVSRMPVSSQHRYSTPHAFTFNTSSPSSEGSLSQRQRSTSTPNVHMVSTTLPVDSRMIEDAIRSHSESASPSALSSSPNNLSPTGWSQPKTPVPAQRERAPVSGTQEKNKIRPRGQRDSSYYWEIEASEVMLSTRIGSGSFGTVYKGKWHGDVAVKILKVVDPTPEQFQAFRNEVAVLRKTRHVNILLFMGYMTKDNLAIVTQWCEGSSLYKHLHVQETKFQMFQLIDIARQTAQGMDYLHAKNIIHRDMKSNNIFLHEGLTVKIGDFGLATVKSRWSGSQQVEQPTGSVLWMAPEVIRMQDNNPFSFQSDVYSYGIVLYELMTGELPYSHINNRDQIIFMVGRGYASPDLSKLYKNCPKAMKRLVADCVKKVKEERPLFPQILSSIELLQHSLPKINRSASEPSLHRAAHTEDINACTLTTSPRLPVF
colony stimulating factor 1 receptor (CSF1R), sequence (P07333 20-972, species assumed): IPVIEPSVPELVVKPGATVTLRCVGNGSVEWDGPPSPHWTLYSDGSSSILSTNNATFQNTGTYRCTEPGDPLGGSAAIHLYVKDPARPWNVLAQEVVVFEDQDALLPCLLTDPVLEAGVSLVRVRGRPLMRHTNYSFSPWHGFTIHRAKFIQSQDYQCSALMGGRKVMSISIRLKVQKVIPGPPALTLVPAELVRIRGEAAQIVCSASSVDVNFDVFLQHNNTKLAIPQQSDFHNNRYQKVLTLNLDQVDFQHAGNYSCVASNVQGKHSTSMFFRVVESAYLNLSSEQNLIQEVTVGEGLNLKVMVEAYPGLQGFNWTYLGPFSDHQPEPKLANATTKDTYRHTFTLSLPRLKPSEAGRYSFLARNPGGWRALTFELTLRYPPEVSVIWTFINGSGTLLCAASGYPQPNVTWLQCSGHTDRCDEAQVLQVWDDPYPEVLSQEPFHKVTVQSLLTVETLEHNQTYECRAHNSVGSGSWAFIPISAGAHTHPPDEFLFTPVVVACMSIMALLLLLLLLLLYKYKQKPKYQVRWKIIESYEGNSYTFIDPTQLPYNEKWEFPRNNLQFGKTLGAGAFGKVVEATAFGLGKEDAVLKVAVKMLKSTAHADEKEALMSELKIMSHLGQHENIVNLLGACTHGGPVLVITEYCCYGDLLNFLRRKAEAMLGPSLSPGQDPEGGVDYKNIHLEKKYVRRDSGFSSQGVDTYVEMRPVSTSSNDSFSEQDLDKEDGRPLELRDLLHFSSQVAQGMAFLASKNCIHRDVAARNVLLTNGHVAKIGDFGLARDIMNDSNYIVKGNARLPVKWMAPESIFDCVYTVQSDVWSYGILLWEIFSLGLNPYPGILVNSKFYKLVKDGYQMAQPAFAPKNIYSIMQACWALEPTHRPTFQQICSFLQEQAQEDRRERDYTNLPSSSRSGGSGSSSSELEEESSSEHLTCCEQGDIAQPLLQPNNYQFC
EPHA7, sequence (Q15375 28-998, species assumed): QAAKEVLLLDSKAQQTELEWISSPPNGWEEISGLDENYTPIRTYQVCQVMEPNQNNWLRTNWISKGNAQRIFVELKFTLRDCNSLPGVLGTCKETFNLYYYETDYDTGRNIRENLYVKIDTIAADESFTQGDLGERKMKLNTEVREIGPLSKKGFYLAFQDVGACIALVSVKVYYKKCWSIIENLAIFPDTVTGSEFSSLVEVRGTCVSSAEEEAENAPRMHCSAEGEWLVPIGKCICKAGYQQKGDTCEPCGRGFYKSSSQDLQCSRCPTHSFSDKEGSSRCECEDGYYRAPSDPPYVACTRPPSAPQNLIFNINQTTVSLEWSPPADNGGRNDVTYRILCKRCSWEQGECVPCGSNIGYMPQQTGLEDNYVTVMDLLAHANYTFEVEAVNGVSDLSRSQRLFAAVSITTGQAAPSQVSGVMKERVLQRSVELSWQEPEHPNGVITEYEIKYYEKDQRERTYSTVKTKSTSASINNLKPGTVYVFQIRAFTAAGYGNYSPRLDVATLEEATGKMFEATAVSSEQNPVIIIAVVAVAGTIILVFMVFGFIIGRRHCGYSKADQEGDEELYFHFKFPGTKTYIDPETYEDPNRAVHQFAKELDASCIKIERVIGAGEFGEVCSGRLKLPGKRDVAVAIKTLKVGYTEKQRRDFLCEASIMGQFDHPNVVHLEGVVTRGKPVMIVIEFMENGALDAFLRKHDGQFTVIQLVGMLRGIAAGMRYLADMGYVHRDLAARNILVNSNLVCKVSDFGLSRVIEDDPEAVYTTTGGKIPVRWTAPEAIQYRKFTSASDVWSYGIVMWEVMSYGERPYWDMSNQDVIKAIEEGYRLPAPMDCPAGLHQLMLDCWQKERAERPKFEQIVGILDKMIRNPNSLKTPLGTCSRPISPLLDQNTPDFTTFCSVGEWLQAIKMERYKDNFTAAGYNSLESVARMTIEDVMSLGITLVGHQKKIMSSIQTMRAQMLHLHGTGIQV

The inhibition is the share of the control response that was lost under treatment. A low value points to little suppression. The pIC50 is the IC50 on a negative log10 scale, so that one unit is a factor of ten. Read a low pIC50 as a high IC50. Regarding `Cc1ccc2c(Nc3cccc(Cl)c3F)nccc2c1NC(=O)c1csc2c(N)ncnc12` [Belvarafenib, 4-amino-N-(1-((3-chloro-2-fluorophenyl)amino)-6-methylisoquinolin-5-yl)thieno[3,2-d]pyrimidine-7-carboxamide], the inhibition at 1 µM in data set [1], in data set [3], in data set [4] and in data set [6] was more than 90% in each case. This molecule also showed a pIC50 in data set [2] of 8.70. Further, in data set [5], the “P-gp/BCRP efflux substrate?” value is “is not a P-gp and a BCRP efflux substrate and No”.

Source of the values: patent US20240173329A1, “BELVARAFENIB FOR USE IN TREATMENT OF BRAIN CANCERS” (Genentech, Inc., priority 2021, published 2024).
